By IC50 is commonly meant the midpoint of a concentration-inhibition curve.

SMILES strings stand for the structures.

One assay concerns brain APA. Conditions: central infusions, cited from earlier work.
A further assay has as its target T1, recombinant mouse APA (Mus musculus, UniProt P16406).
T1 sequence (P16406 1-945): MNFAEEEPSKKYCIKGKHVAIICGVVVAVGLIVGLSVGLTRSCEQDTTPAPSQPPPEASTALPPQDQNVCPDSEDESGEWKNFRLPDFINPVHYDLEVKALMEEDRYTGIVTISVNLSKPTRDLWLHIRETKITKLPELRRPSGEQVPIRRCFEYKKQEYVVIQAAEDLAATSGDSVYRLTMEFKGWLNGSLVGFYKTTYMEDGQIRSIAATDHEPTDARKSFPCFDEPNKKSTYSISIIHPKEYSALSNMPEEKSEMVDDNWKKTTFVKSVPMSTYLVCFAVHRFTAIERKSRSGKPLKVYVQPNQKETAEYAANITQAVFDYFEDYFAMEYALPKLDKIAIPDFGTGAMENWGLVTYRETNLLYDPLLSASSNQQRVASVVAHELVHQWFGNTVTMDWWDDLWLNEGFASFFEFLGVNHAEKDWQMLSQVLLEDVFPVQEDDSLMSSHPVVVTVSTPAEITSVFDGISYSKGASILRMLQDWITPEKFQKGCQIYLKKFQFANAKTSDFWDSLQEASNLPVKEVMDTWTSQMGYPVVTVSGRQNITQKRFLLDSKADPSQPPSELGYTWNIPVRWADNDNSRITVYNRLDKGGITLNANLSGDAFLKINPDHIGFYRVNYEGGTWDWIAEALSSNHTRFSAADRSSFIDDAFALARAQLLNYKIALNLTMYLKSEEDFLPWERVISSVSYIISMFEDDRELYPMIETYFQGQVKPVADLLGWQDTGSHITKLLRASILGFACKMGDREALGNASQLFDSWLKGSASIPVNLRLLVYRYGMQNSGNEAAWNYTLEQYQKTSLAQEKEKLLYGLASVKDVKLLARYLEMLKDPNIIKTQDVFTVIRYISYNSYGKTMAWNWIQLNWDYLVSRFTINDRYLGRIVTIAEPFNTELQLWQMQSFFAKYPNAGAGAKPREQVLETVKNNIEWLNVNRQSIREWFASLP
Briefly: Measurement of APA activity in vitro (GluβNa hydrolysis, microplate). As to conditions: 200 μM Glu-βNa, pH 7.4, 37° C., read-out: In vitro inhibition of aminopeptidase A, IC50 classification. The class given is biochemical. The source says:
In vitro, in the presence of calcium ions, APA hydrolyses a synthetic substrate α-L-glutamyl-β-naphthylamide (GluβNa) to glutamate and β-naphthylamine (βNa). A diazotation reaction in acidic medium makes it possible to reveal the β-naphthylamine by formation of a violet-coloured complex: spectrophotometric measurement then makes it possible to know the amount of complex formed and, by reference to a standard curve produced with increasing concentrations of β-naphthylamine, to deduce the enzymatic activity of the sample.
The reaction takes place at pH 7.4 in 50 mM tris-HCl buffer, in the presence of calcium (4 mM CaCl2)); recombinant mouse APA is incubated at 37° C. in the presence of the substrate (200 μM Glu-βNa) and in the presence or absence of various concentrations of the inhibitor to be tested, in a final volume of 100 μL. The reaction is stopped by adding 10 μL of 3N HCl. A standard curve of β-naphthylamine was prepared in parallel by diazotizing increasing concentrations (up to 0.2 mM) of 2-naphthylamine in 0.1 N HCl.
The following are added to each well: 25 μL of sodium nitrite (NaNO2) (mix, wait 5 minutes at room temperature), 50 μL of ammonium sulfamate (mix, wait 5 minutes at room temperature), then add 25 μL of N-(1-naphthyl) ethylenediamine dihydrochloride (mix, wait for stabilization of the violet colour for approximately 30 minutes at 37° C.).
The absorbance is then measured at 540 nm.

For assay [1] the following is noted: acute oral, 15 to 150 mg/kg, conscious hypertensive DOCA-salt rats and SHR rats; cited from earlier work.

Take `N[C@H](CS)CCS(=O)(=O)O` [EC33, (S)-3 amino-4-mercapto-butylsulfonic acid]: the “effect on BP” value in the assay on brain APA (several experimental models of hypertension) was “lower BP”. Besides, in the assay with brain APA, the “effect on brain APA activity” value is “inhibit brain APA activity”. Also, on recombinant mouse APA, the IC50 fell in the range of 0.3 to 10 µM.

On to `N[C@@H](CCS(=O)(=O)O)CSSC[C@@H](N)CCS(=O)(=O)O` [RB150], for which the “effect on BP” value in assay [1] is “dose-dependent decrease in BP”.

These data come from patent US11192907B2, “Aminopeptidase A inhibitors and pharmaceutical compositions comprising the same” (QUANTUM GENOMICS, priority 2018, dated 2021).
